{
  "source": "patent US20070197525A1",
  "about": "“Novel tetracyclic tetrahydrofuran derivatives” (priority 2004, published 2007)",
  "key": {"[1]": {"assay": "Metabolic stability assay using human liver microsomes", "type": "in vitro ADME", "conditions": "5.0 μM test compound, 15 min incubation, LC-MS", "procedure": "Compounds according to the invention were tested for metabolic stability in the following assay using human liver microsomes in comparison with prior art compound A, referred to above.\nSub-cellular tissue preparations are made by centrifugal separation after mechanical homogenization of tissue. Tissue is rinsed in ice cold 0.1 M Tris-HCl (pH 7.4) buffer to wash excess blood. Tissue is then blotted dry, weighed and chopped coarsely using surgical scissors. The tissue pieces are homogenized in 3 volumes of ice cold 0.1 M phosphate buffer (pH 7.4) for 7×10 sec. The vessel is kept in/on ice during the homogenization process. Tissue homogenates are centrifuged at 9000×g for 20 minutes at 4° C. The resulting supernatant can be stored at −80° C. and is designated ‘S9’.\nThe S9-fraction may be centrifuged at 100.000×g for 60 minutes (4° C.). The resulting supernatant is aspirated, aliquoted and designated ‘cytosol’. The pellet is re-suspended in 0.1 M phosphate buffer (pH 7.4) in a final volume of 1 mL per 0.5 g original tissue weight and designated ‘microsomes’.\nThe incubation is carried out in the following system:\n• The reaction is started by the addition of 0.8 mM NADP and incubated for 15 min. • Total assay volume is 250 microliters. • The reaction is stopped by the addition of 2 volumes of DMSO (or acetonitrile). • The samples are centrifuged (10 min, 900×g) and supernatant stored at room temperature (when stopped with DMSO; no longer than 24 h) or −20° C. (when stopped with acetonitrile; no longer than 24 h) before analysis. • The supernatant material is then analysed by LC-MS to determine the extent of metabolism of the test compound in the microsomes"}, "[2]": {"target": "T1, norepinephrine transporter (NET) (Rattus norvegicus, UniProt Q63380)", "T1 construct": "Cortex from rat brain was collected and homogenised; from tissue; host or cells: rat brain cortex membranes", "T1 sequence (Q63380 1-617)": "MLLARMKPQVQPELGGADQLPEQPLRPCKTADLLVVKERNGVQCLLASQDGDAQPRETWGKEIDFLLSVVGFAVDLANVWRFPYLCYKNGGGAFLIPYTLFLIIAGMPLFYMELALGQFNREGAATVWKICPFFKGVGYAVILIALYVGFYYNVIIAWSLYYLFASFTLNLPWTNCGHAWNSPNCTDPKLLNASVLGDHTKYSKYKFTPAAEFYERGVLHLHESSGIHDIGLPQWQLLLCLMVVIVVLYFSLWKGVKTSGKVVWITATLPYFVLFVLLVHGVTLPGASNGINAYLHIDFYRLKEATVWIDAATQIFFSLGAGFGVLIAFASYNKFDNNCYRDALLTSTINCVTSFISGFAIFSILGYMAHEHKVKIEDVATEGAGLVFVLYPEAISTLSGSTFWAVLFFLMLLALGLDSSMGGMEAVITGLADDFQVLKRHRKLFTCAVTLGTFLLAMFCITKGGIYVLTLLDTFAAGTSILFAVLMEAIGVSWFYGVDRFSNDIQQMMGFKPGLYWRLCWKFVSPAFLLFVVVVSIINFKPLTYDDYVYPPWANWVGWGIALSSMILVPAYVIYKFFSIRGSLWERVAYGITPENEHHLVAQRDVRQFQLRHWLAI", "assay": "In vitro assay for NET inhibition (radioligand binding, rat brain cortex)", "conditions": "rat brain cortex membranes, [3H]Nixosetine radioligand; read-out: NET-inhibition (pIC50) (converted)", "procedure": "Cortex from rat brain was collected and homogenised using an Ultra-Turrax T25 and a Dual homogeniser in ice-cold homogenising buffer containing Tris, NaCl and KCl (50 mM, 120 mM and 5 mM, respectively, pH 7.4) prior to dilution to an appropriate protein concentration optimised for specific and non-specific binding. […] Membrane-bound activity was detected by filtration through a Packard Filtermate harvester onto GF/B Unifilterplates, washed with ice-cold Tris-HCl buffer, containing NaCl and KCl (50 mM, 120 mM and 4 mM; pH 7.4; 6×0.5 ml). Filters were allowed to dry for 24 h before adding scintillation fluid. Scintillation fluid was allowed to saturate filters for 24 h before counting in a Topcount scintillation counter. Percentage specific bound and competition binding curves were calculated using S-Plus software (Insightful)."}, "[3]": {"target": "T2, human dopamine D2L receptor (Homo sapiens, UniProt P14416)", "T2 construct": "expressed in transfected cells; host or cells: CHO cells (frozen membranes)", "T2 sequence (P14416 whole entry)": "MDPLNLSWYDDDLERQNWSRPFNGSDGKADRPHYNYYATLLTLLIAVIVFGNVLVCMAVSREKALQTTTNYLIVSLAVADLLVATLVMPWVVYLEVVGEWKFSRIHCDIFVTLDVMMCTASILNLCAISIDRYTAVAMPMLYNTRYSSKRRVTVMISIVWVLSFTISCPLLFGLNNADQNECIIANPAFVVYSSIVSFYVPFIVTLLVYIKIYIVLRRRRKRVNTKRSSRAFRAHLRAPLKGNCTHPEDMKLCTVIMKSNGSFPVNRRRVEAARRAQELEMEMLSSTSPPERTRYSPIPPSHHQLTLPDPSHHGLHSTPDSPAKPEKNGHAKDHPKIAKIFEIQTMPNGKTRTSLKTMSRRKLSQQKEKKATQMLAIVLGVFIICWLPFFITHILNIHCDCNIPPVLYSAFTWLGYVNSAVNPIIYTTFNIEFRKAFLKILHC", "assay": "In vitro assay for D2 receptor binding", "conditions": "for IC50: membranes of human D2L-transfected CHO cells, [3H]Spiperone radioligand, read-out: D2 (pIC50) (converted); for D2/NET: ratio of D2 pIC50 to NET-inhibition pIC50", "procedure": "Frozen membranes of human dopamine D2L receptor-transfected CHO cells were thawed, briefly homogenised using an Ultra-Turrax T25 homogeniser and diluted in Tris-HCl assay buffer containing NaCl, CaCl2, MgCl2, KCl (50, 120, 2, 1, and 5 mM respectively, adjusted to pH 7.7 with HCl) to an appropriate protein concentration optimised for specific and non-specific binding. Radioligand [^3H]Spiperone (NEN, specific activity ˜70 Ci/mmol) was diluted in assay buffer at a concentration of 2 nmol/L. Prepared radioligand (50 μl), along with 50 μl of either the 10% DMSO control, Butaclamol (10^−6 mol/l final concentration), or compound of interest, was then incubated (30 min, 37° C.) with 400 μl of the prepared membrane solution. Membrane-bound activity was filtered through a Packard Filtermate harvester onto GF/B Unifilterplates and washed with ice-cold Tris-HCl buffer (50 mM; pH 7.7; 6×0.5 ml). Filters were allowed to dry before adding scintillation fluid and counting in a Topcount scintillation counter. Percentage specific bound and competition binding curves were calculated using S-Plus software (Insightful)."}, "[4]": {"target": "T3, human cloned 5-HT2C receptor (Homo sapiens, UniProt P28335)", "T3 construct": "expressed in transfected cells; host or cells: CHO cells", "T3 sequence (P28335 33-458)": "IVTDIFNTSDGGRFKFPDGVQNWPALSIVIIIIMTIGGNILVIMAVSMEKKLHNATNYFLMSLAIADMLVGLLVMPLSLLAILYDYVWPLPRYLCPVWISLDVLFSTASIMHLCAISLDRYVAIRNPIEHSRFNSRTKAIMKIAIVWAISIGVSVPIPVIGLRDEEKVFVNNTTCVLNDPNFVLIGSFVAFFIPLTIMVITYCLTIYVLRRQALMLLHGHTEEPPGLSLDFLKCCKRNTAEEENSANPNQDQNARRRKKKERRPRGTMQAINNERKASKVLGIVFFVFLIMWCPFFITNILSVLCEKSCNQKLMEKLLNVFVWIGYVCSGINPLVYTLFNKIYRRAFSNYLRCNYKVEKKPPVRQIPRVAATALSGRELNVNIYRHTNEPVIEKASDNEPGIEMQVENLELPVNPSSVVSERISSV", "assay": "In vitro binding affinity for 5-HT2C receptor (radioligand binding)", "conditions": "human cloned 5-HT2C receptor expressed in CHO cells, [3H]mesulergine radioligand; read-out: 5-HT2C (pIC50) (converted)", "procedure": "(§1) The interaction of the compounds of Formula (I) with 5-HT2A and 5-HT2C receptors was assessed in in vitro radioligand binding experiments. In general, a low concentration of a radioligand with a high binding affinity for the receptor is incubated with a sample of a tissue preparation enriched in a particular receptor (1 to 5 mg tissue) in a buffered medium (0.2 to 5 ml). During the incubation, the radioligands bind to the receptor. When equilibrium of binding is reached, the receptor bound radioactivity is separated from the non-bound radioactivity, and the receptor bound activity is counted. The interaction of the test compounds with the receptors is assessed in competition binding experiments. Various concentrations of the test compound are added to the incubation mixture containing the tissue preparation and the radioligand. Binding of the radioligand will be inhibited by the test compound in proportion to its binding affinity and its concentration. The affinities of the compounds for the 5-HT2 receptors were measured by means of radioligand binding studies conducted with: (a) human cloned 5-HT2A receptor, expressed in L929 cells using [^125I]R91150 as radioligand and (b) human cloned 5-HT2C receptor, expressed in CHO cells using [^3H]mesulergine as radioligand."}, "[5]": {"target": "T4, human cloned 5-HT2A receptor (Homo sapiens, UniProt P28223)", "T4 construct": "expressed in transfected cells; host or cells: L929 cells", "T4 sequence (P28223 whole entry)": "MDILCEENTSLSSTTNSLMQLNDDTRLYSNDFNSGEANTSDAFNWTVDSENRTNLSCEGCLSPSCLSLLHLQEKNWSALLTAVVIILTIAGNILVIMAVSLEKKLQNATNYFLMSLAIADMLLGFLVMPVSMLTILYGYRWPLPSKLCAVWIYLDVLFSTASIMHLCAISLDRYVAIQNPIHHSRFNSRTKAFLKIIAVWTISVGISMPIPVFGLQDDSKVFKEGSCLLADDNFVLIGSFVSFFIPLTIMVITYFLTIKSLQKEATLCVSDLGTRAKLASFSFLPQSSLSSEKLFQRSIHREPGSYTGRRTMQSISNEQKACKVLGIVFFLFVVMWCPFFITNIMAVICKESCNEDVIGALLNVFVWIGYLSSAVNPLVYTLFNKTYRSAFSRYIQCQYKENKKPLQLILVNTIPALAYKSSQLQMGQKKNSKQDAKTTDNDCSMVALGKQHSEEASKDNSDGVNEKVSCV", "assay": "In vitro binding affinity for 5-HT2A receptor (radioligand binding)", "conditions": "human cloned 5-HT2A receptor expressed in L929 cells, [125I]R91150 radioligand; read-out: 5-HT2A (pIC50) (converted)", "procedure": "as §1"}},
  "data": [
    {"smiles": "CN(C)C[C@H]1C[C@@H]2c3ccccc3[C@](C)(O)c3ccc(F)cc3[C@H]2O1", "note": "[Compound 41]", "values": [
      {"measurement": "% metabolised", "setting": "[1]", "value": 2.25, "unit": "%"},
      {"measurement": "IC50", "setting": "[2]", "value": 126, "unit": "nM"},
      {"measurement": "IC50", "setting": "[3]", "value": "> 1000", "unit": "nM"},
      {"measurement": "D2/NET", "setting": "[3]", "value": "<0.87"},
      {"measurement": "IC50", "setting": "[4]", "value": 50.1, "unit": "nM"},
      {"measurement": "IC50", "setting": "[5]", "value": 31.6, "unit": "nM"}
    ]},
    {"smiles": "C=C1c2ccccc2[C@H]2C[C@H](CN(C)C)O[C@@H]2c2cc(F)ccc21", "note": "[Compound 26]", "values": [
      {"measurement": "% metabolised", "setting": "[1]", "value": 2.6, "unit": "%"}
    ]},
    {"smiles": "CNCC1CC2c3ccccc3C(C)c3ccc(F)cc3C2O1", "note": "(single isomer, unassigned) [Compound 74]", "values": [
      {"measurement": "% metabolised", "setting": "[1]", "value": 9, "unit": "%"},
      {"measurement": "IC50", "setting": "[2]", "value": 5.01, "unit": "nM"},
      {"measurement": "IC50", "setting": "[3]", "value": 631, "unit": "nM"},
      {"measurement": "D2/NET", "setting": "[3]", "value": 0.74},
      {"measurement": "IC50", "setting": "[4]", "value": 3.98, "unit": "nM"},
      {"measurement": "IC50", "setting": "[5]", "value": 12.6, "unit": "nM"}
    ]},
    {"smiles": "C[C@@H]1c2ccccc2[C@H]2C[C@H](CN(C)C)O[C@@H]2c2cc(F)ccc21", "note": "[Compound 66]", "values": [
      {"measurement": "% metabolised", "setting": "[1]", "value": 11.35, "unit": "%"},
      {"measurement": "IC50", "setting": "[2]", "value": 31.6, "unit": "nM"},
      {"measurement": "IC50", "setting": "[3]", "value": 316, "unit": "nM"},
      {"measurement": "D2/NET", "setting": "[3]", "value": 0.86},
      {"measurement": "IC50", "setting": "[4]", "value": 3.98, "unit": "nM"},
      {"measurement": "IC50", "setting": "[5]", "value": 25.1, "unit": "nM"}
    ]},
    {"smiles": "C=C1c2ccccc2[C@H]2C[C@H](CN(C)C)O[C@@H]2c2ccccc21", "note": "[Compound 25]", "values": [
      {"measurement": "IC50", "setting": "[2]", "value": 12.6, "unit": "nM"},
      {"measurement": "IC50", "setting": "[3]", "value": 200, "unit": "nM"},
      {"measurement": "D2/NET", "setting": "[3]", "value": 0.85},
      {"measurement": "IC50", "setting": "[4]", "value": 3.98, "unit": "nM"},
      {"measurement": "IC50", "setting": "[5]", "value": 12.6, "unit": "nM"}
    ]}
  ]
}
